# Measured values from ChEMBL document CHEMBL5331107 (J Med Chem, 2023).
# Tests used:
# hERG = hERG (Homo sapiens, UniProt Q12809); assay: Inhibition of hERG expressed in CHO cells at 0.1 uM at -80 mV holding potential by manual patch-clamp electrophysiology method relative to control; assay type: toxicity, cell-based; conditions: CHO cells expressing hERG
# [1] = test system: Human immunodeficiency virus 1; assay: Potency index, ratio of efavirenz EC50 to test compound EC50 for antiviral activity against NNRTI-resistant HIV-1 harboring K103N mutant infected in human MT4 cells assessed as protection against virus-induced cytopathic effect incubated for 5 days by MTT assay; assay type: functional; conditions: time 5 day
# [2] = test system: Human immunodeficiency virus 1; assay: Antiviral activity against NNRTI-resistant HIV-1 harboring K103N mutant infected in human MT4 cells assessed as protection against virus-induced cytopathic effect incubated for 5 days by MTT assay; assay type: functional, organism-based; conditions: Human immunodeficiency virus 1, MT4, 120 h
# [3] = test system: Human immunodeficiency virus 1; assay: Antiviral activity against NNRTI-resistant HIV-1 harboring E138K mutant infected in human MT4 cells assessed as protection against virus-induced cytopathic effect incubated for 5 days by MTT assay; assay type: functional, organism-based; conditions: Human immunodeficiency virus 1, MT4, 120 h
# [4] = Cytotoxicity against human MT4 cells assessed as reduction in cell viability incubated for 5 days by MTT assay; assay type: toxicity, cell-based; conditions: time 5 day
# [5] = test system: Human immunodeficiency virus 1; assay: Antiviral activity against NNRTI-resistant HIV-1 harboring L100I mutant infected in human MT4 cells assessed as protection against virus-induced cytopathic effect incubated for 5 days by MTT assay; assay type: functional, organism-based; conditions: Human immunodeficiency virus 1, MT4, 120 h
# [6] = test system: Human immunodeficiency virus 1; assay type: functional, organism-based; conditions: Human immunodeficiency virus 1, MT4, 120 h
# [7] = test system: Human immunodeficiency virus 1; assay type: functional, organism-based; conditions: Human immunodeficiency virus 1, MT4, 120 h; remark: listed apart in the source
# [8] = test system: Human immunodeficiency virus 1; assay: Antiviral activity against NNRTI-resistant HIV-1 harboring F227L and V106A double mutant infected in human MT4 cells assessed as protection against virus-induced cytopathic effect incubated for 5 days by MTT assay; assay type: functional, organism-based; conditions: Human immunodeficiency virus 1, MT4, 120 h
# [9] = test system: Human immunodeficiency virus 1; assay type: functional, organism-based; conditions: Human immunodeficiency virus 1, MT4, 120 h; remark: listed apart in the source
# [10] = target: Human immunodeficiency virus type 1 reverse transcriptase (Human immunodeficiency virus 1, UniProt Q72547); assay: Inhibition of HIV-1 reverse transcriptase assessed as assessed as reduction of biotin-dUTP incorporation into […] incubated for 1 hrs by ELISA analysis
# in vitro [11] = conditions: human, MT4 cells
# Description: Selectivity index, ratio of CC50 for cytotoxicity against human MT4 cells to EC50 for antiviral activity against wildtype HIV-1 IIIB infected in human MT4 cells
# in vitro [12] = conditions: human, MT4 cells; remark: listed apart in the source
# Description: Selectivity index, ratio of CC50 for cytotoxicity against human MT4 cells to EC50 for antiviral activity against NNRTI-resistant HIV-1 harboring K103N mutant infected in human MT4 cells
# in vitro [13] = conditions: human, MT4 cells; remark: listed apart in the source
# Description: Selectivity index, ratio of CC50 for cytotoxicity against human MT4 cells to EC50 for antiviral activity against NNRTI-resistant HIV-1 harboring E138K mutant infected in human MT4 cells
# in vitro [14] = conditions: human, MT4 cells; remark: listed apart in the source
# Description: Selectivity index, ratio of CC50 for cytotoxicity against human MT4 cells to EC50 for antiviral activity against NNRTI-resistant HIV-1 harboring L100I mutant infected in human MT4 cells
# in vitro [15] = conditions: human, MT4 cells; remark: listed apart in the source
# Description: Selectivity index, ratio of CC50 for cytotoxicity against human MT4 cells to EC50 for antiviral activity against NNRTI-resistant HIV-1 harboring Y181C mutant infected in human MT4 cells
# in vitro [16] = conditions: human, MT4 cells; remark: listed apart in the source
# Description: Selectivity index, ratio of CC50 for cytotoxicity against human MT4 cells to EC50 for antiviral activity against NNRTI-resistant HIV-1 harboring Y188L mutant infected in human MT4 cells
# in vitro [17] = conditions: human, MT4 cells; remark: listed apart in the source
# Description: Selectivity index, ratio of CC50 for cytotoxicity against human MT4 cells to EC50 for antiviral activity against NNRTI-resistant HIV-1 harboring F227L and V106A mutant infected in human MT4 cells
# in vitro [18] = conditions: human, MT4 cells; remark: listed apart in the source
# Description: Selectivity index, ratio of CC50 for cytotoxicity against human MT4 cells to EC50 for antiviral activity against NNRTI-resistant HIV-1 harboring K103N and Y181C mutant infected in human MT4 cells
# [19] = test system: Human immunodeficiency virus 1; assay: microbe, parasite or virus in culture; conditions: Human immunodeficiency virus 1, IIIB, MT4, 120 h
# Description: Antiviral activity against wild type HIV-1 IIIB infected in human MT4 cells assessed as protection against virus-induced cytopathic effect incubated for 5 days by MTT assay
# [20] = Water solubility of the compound in phosphate buffer at pH 7.4
# [21] = Water solubility of the compound in phosphate buffer at pH 7.0
# [22] = Metabolic stability in human plasma assessed as half-life incubated for 120 mins by LC-MS/MS analysis; assay type: ADME, cell-free
# [23] = Metabolic stability in human plasma assessed as compound remaining incubated for 120 mins by LC-MS/MS analysis; assay type: ADME, cell-free; conditions: read-out: Stability
# [24] = Metabolic stability in human liver microsomes assessed as half-life incubated for 60 mins in the presence of NADPH by LC-MS/MS analysis; assay type: ADME, Microsome
# [25] = Metabolic stability in human liver microsomes assessed as intrinsic clearance incubated for 60 mins in the presence of NADPH by LC-MS/MS analysis
# [26] = Metabolic stability in human liver assessed as intrinsic clearance incubated for 60 mins in the presence of NADPH by LC-MS/MS analysis; assay type: ADME, tissue-based; conditions: read-out: CLH
# [27] = Metabolic stability in human liver microsomes assessed as compound remaining measured after 60 mins in the presence of NADPH by LC-MS/MS analysis; assay type: ADME, Microsome
# [28] = Metabolic stability in human plasma assessed as compound hydrolysis incubated for 120 mins by LC-MS/MS analysis; assay type: ADME, cell-free; conditions: 2 h
# Chain of hERG (Q12809 whole entry): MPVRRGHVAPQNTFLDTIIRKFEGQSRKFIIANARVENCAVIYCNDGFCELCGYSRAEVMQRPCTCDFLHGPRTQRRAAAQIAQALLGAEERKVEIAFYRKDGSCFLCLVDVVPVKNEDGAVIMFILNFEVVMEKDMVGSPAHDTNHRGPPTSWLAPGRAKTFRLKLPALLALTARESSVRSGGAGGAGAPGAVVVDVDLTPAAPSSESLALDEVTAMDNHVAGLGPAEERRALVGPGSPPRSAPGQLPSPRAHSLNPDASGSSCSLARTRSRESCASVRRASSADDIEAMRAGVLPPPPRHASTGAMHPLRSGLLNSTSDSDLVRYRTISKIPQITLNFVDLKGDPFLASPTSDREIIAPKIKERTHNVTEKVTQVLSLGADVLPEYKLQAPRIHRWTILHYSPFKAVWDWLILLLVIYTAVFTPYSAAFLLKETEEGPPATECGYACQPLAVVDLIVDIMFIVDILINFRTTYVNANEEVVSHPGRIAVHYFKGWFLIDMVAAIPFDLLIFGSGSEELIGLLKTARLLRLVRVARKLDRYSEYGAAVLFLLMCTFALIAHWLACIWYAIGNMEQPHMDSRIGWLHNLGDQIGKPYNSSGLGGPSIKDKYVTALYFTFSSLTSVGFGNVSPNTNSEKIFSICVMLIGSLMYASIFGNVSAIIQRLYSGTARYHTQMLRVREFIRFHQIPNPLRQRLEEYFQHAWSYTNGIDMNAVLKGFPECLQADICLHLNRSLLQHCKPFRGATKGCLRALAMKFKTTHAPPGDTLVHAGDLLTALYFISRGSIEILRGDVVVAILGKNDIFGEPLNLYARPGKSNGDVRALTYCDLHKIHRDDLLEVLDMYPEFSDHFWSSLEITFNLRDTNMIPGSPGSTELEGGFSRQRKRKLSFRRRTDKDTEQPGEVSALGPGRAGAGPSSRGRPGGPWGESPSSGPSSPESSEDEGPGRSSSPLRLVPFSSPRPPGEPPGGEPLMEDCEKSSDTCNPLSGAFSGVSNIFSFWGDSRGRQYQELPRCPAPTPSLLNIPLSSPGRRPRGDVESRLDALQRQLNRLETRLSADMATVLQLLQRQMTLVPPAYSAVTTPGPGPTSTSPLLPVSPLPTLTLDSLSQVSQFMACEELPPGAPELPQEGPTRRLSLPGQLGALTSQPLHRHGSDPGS
Compound,EC50 [2],EC50 [3],CC50 at 120 h [4],EC50 [5],EC50 [6],EC50 [7],EC50 [8],EC50 [9],IC50 [10],selectivity ratio (in vitro [11]),selectivity ratio (in vitro [12]),selectivity ratio (in vitro [13]),selectivity ratio (in vitro [14]),selectivity ratio (in vitro [15]),selectivity ratio (in vitro [16]),selectivity ratio (in vitro [17]),selectivity ratio (in vitro [18]),EC50 [19],also measured
COc1cc(N)c(Cl)cc1C(=O)NC1CCN(CCCOc2ccc(F)cc2)CC1OC (stereo not given) [CISAPRIDE],,,,,,,,,,,,,,,,,,,inhibition at 0.1 µM (hERG): 64%
Cc1cc(C#N)cc(C)c1Oc1nc(Nc2ccc(C#N)cc2)nc2c1CN(Cc1ccc(C(N)=O)cc1)CC2,7.84 nM,13.4 nM,101000 nM,67 nM,34.2 nM,183 nM,111 nM,85.8 nM,123 nM,15100,12900,7560,1510,2960,5550,914,1180,6.7 nM,Ratio EC50 [1]: 17
Cc1cc(C#N)cc(C)c1Oc1nc(Nc2ccc(C#N)cc2)nc(N)c1Br [ETRAVIRINE],3.95 nM,,> 4610 nM,,,32.1 nM,,66.7 nM,,,,,,,,,,,"solubility ([20]; phosphate buffer): < 1 µg/mL; solubility [21]: < 1 µg/mL; half-life [22]: > 289 min; remaining at 2 h [23]: 83.2%; half-life ([24]; liver microsomes): 65.5 min; microsomal CLint at 1 h ([25]; liver microsomes): 21.2 µL/min/mg; CLint scaled [26]: 19 mL/min/kg; remaining at 1 h ([27]; liver microsomes, read-out: Stability): 50.2%"
Cc1cc(/C=C/C#N)cc(C)c1Nc1ccnc(Nc2ccc(C#N)cc2)n1 [RILPIVIRINE],,,,,,,,,,,,,,,,,,,"solubility ([20]; buffer): < 1 µg/mL; t1/2 ([24]; microsomes, 1 h): 12.8 min; microsomal CLint at 1 h ([25]; microsomes): 108 µL/min/mg; CLint scaled [26]: 97.6 mL/min/kg; Stability ([27]; microsomes, 1 h): 21%"
CC(C)[N+](C)(CCOC(=O)C1c2ccccc2Oc2ccccc21)C(C)C.[Br-] [PROPANTHELINE BROMIDE],,,,,,,,,,,,,,,,,,,half-life [22]: 10 min; Stability [28]: Unstable
Cc1ccc(C(=O)N2CCc3nc(Nc4ccc(C#N)cc4)nc(Oc4c(C)cc(C#N)cc4C)c3C2)cc1,7.14 nM,23.5 nM,> 243000 nM,94.6 nM,49.7 nM,50.5 nM,314 nM,182 nM,236 nM,> 34300,> 34000,> 10300,> 2570,> 4890,> 4810,> 774,> 1340,7.08 nM,
Cc1cc(C#N)cc(C)c1Oc1nc(Nc2ccc(C#N)cc2)nc2c1CN(Cc1ccc(S(C)(=O)=O)cc1)CC2,8.72 nM,43.3 nM,> 221000 nM,160 nM,41.3 nM,36.6 nM,234 nM,118 nM,234 nM,> 25400,> 25400,> 5110,> 1380,> 5360,> 6050,> 944,> 1880,8.7 nM,
